According to paper PMC7614232 (Organic & biomolecular chemistry, 2022):

What was measured:
[1] = target: T1, GMIIb (Golgi α-mannosidase) (Drosophila melanogaster, UniProt Q9VF33); assay: α-mannosidase inhibition assay with pNP-Man, GMIIb; assay type: biochemical; conditions: for SI^a = IC50(LManII)/IC50(GMIIb): selectivity index
T1 sequence (Q9VF33 31-1249): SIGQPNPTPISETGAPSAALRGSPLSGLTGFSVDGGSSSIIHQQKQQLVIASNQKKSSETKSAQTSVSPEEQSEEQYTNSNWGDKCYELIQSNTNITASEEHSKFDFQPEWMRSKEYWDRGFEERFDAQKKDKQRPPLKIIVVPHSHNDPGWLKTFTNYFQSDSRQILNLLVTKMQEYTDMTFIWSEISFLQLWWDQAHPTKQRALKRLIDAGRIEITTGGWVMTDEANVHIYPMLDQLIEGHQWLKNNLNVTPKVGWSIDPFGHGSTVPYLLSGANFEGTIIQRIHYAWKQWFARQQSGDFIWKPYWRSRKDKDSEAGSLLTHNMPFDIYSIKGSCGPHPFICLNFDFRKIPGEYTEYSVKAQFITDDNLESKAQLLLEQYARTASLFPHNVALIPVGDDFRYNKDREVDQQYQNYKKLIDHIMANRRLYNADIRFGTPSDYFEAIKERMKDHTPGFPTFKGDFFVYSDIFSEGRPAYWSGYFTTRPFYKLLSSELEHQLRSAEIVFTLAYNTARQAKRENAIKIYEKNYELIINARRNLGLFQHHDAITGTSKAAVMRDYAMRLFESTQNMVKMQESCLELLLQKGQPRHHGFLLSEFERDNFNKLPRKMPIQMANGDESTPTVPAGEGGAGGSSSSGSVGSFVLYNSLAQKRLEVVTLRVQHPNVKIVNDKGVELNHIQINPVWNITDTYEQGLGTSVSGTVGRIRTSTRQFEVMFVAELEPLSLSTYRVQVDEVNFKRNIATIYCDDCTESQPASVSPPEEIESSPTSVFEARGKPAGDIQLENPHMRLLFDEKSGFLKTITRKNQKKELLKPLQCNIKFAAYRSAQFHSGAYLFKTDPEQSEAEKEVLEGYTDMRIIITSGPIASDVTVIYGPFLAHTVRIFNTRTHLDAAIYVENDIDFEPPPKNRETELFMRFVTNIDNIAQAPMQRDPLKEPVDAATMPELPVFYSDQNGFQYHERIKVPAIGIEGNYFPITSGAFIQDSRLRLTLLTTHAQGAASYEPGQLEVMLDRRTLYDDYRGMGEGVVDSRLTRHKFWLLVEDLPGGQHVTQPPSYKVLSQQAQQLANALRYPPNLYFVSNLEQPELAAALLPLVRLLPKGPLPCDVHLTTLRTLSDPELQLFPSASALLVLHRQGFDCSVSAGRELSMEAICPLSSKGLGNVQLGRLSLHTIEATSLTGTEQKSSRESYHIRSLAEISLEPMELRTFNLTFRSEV

[2] = target: T2, AMAN-2 (Golgi α-mannosidase) (Caenorhabditis elegans, UniProt Q2PJ74); assay: α-mannosidase inhibition assay with pNP-Man, AMAN-2; assay type: biochemical; conditions: for SI^b = IC50(JBMan)/IC50(AMAN-2): selectivity index
T2 sequence (Q2PJ74 27-1145): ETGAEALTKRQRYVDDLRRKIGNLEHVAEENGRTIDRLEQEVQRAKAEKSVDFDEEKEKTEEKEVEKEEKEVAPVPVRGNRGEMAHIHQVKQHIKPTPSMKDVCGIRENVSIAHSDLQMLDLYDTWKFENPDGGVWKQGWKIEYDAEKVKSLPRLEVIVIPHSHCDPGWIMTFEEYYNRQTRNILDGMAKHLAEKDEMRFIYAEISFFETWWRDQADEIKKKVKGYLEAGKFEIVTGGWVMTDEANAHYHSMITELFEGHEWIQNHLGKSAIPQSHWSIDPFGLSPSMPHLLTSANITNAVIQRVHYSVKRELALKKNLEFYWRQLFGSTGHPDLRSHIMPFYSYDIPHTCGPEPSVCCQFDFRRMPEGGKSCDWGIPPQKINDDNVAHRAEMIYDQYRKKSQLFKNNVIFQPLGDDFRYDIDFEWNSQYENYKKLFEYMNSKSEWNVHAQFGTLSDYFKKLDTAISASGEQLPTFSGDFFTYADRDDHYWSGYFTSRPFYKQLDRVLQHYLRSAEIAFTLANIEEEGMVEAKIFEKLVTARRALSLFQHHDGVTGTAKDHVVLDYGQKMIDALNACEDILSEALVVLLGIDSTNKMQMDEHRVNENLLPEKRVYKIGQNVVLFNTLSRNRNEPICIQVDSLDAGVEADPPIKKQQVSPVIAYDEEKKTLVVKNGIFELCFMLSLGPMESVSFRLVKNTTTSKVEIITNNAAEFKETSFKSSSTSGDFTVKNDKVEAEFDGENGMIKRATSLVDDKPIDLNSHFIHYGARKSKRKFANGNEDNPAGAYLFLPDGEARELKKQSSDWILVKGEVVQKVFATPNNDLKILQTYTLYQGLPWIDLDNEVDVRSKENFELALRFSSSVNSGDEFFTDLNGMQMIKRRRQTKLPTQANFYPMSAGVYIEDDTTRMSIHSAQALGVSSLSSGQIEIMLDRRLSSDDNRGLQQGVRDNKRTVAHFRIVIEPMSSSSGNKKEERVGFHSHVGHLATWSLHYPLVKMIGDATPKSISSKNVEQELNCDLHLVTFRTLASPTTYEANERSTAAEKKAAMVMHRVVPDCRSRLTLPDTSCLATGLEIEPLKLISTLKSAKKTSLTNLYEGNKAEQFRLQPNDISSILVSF

[3] = in aqueous solution; cited from earlier work
[4] = system: dGMII (Golgi α-mannosidase II); conditions: previous pKa calculations; cited from earlier work

Compound | SI^a = IC50(LManII)/IC50(GMIIb) [1] | SI^b = IC50(JBMan)/IC50(AMAN-2) [2] | Ki ([1]; read-out: Ki GMIIb, Dixon plots, pNP-Man 0.5-4 mM, pH 6.0) | Ki ([2]; read-out: Ki AMAN-2, Dixon plots, pNP-Man 0.5-4 mM, pH 6.0) | pKa [3] | pKa bound in complex with dGMII [4]
Cl.OC[C@H]1NC[C@@H](O)[C@H]1O [Compound 6, 1,4-Dideoxy-1,4-imino-d-lyxitol hydrochloride] | 8 | 5 |  |  |  | 
OC[C@@H](O)[C@H]1NC[C@@H](O)[C@H]1O [DIM, 1,4-dideoxy-1,4-imino-D-mannitol, reference compound] | 13 | 1 | 130 nM | 680 nM |  | 
O[C@H]1[C@H]2[C@H](O)CCCN2C[C@H]1O [Swainsonine, (1S,2R,8R,8aR)-trihydroxy-indolizidine] |  |  |  |  | 7.5 | 5.0
